“Also recorded” adds a separate entry of the source.
Key:
protein phosphatase 2A = protein phosphatase 2A (Homo sapiens, UniProt P67775); experiment: Inhibition of protein phosphatase 2A; format: biochemical
[1] = tested on: acetylated histone 3 and histone 4; experiment: Acetylation of Histone 3 and Histone 4 in normal mouse brain (western blot); format: in vivo; conditions: for entry into the brain: mouse, given intraperitoneally, shown by histone acetylation; for acetylation of histone 3 and histone 4 in brain: normal mice, 0.03 mg/20 gram mouse, 4 hours of exposure, compared to control tissue
Description: FIG. 5: Induction of acetylation of Histone 3 and Histone 4 in normal mouse brain by Compound 100 and Compound 102. • Normal mice were treated with Compound 100 and Compound 102, 0.03 mg/20 gram mouse. After 4 hours of exposure, treated and control animals (vehicle alone) animals were sacrificed and western blots for acetylated histone 3 and histone 4 were made.
Normal mice were treated with Compound 100 or Compound 102 at a dose of 0.03 mg/20 gram mouse, or with vehicle. After 4 hours of exposure, treated and control animals were sacrificed and western blots for acetylated histone 3 and histone 4 were made.

[2] = tested on: p-Akt / total Akt in human glioblastoma U87 xenografts; experiment: Induction of phosphorylated Akt in U87 cells growing as xenografts in SCID mice (western blot); format: in vivo; conditions: 0.03 mg/20 gram mouse, after 4 hours
Description: FIG. 4: Induction of phosphorylated Akt by Compound 100 in U87 cells growing as xenografts in SCID mice. • SCID mice with human glioblastoma cells, U87, implanted subcutaneously were treated with 0.03 mg/20 gram mouse with Compound 100 or vehicle alone. After 4 hours, western blots were made for p-Akt, total Akt, and beta actin.
Human glioblastoma U87 cells were implanted subcutaneously in SCID mice. Mice were then treated with 0.03 mg/20 gram mouse with Compound 100 or vehicle alone. After 4 hours, western blots were made for p-Akt, total Akt, and beta actin.

Akt = Akt phosphorylation in the cell lines tested growing as xenografts in SCID mice; format: in vivo; conditions: given intraperitoneally
From the text: The compounds increase the phosphorylation of several regulatory proteins including Akt. At low doses that are non-toxic to mice, these compounds slightly stimulate cell proliferation and increases phosphorylation of Akt in human cancer cell lines tested including SH-SY5Y.

[3] = tested on: p-Akt / total Akt in human glioblastoma cells, U87; experiment: Induction of phosphorylated Akt in U87 cells in culture (western blot); format: cell-based; conditions: after 4 hours
Description: FIG. 3: Induction of phosphorylated Akt by Compound 100 in U87 cells in culture. • The human glioblastoma cells, U87, were exposed to compound 100 or vehicle alone. After 4 hours western blots were made for p-Akt, total Akt, and beta actin.
Human glioblastoma cells, U87, were grown in culture and exposed to Compound 100 or vehicle alone. After 4 hours, western blots were made for p-Akt, total Akt, and beta actin.

[4] = tested on: p-Akt / total Akt in human medulloblastoma DAOY xenografts; experiment: Induction of phosphorylated Akt in DAOY cells growing as xenografts in SCID mice (western blot); format: in vivo; conditions: 0.03 mg/20 gram mouse, after 4 hours and 24 hours
Description: FIG. 2: Induction of phosphorylated Akt by Compound 100 in DAOY cells growing as xenografts in SCID mice. • SCID mice with human medulloblastoma cells, DAOY, implanted subcutaneously were treated with 0.03 mg/20 gram mouse with Compound 100 or vehicle alone. After 4 hours and 24 hours western blots were made for p-Akt, total Akt, and beta actin. Control cells (C) at both time points (only 24 hour point shown) had only trace amounts of p-Akt and substantial amounts of total Akt and beta actin.
Human medulloblastoma DAOY cells were implanted subcutaneously in SCID mice. Mice were then treated with 0.03 mg/20 gram mouse with Compound 100 or vehicle alone. After 4 hours and 24 hours, western blots were made for phosphorylated Akt (p-Akt), total Akt, and beta actin. Control cells at both time points had only trace amount of p-Akt and substantial amounts of total Akt and beta actin.

[5] = tested on: p-Akt / total Akt in medulloblastoma cells, DAOY; experiment: Induction of phosphorylated Akt in DAOY cells in culture (western blot); format: cell-based, human; conditions: after 4 hours
Description: FIG. 1: Induction of phosphorylated Akt by Compound 100 in DAOY cells in culture. • The medulloblastoma cells, DAOY, in culture were exposed to Compound 100, Compound 205 or vehicle alone. After 4 hours western blots were made for p-Akt, total Akt, and beta actin.
Medulloblastoma cells, DAOY, were grown in culture and exposed to Compound 100, […] or vehicle alone. After 4 hours western blots were made for p-Akt, total Akt and beta actin.

[6] = tested on: primary embryonal rat cortical neuronal cells; experiment: Survival of primary cortical neurons after environmental stress (growth factor deficient medium 1 hour); format: cell-based; conditions: 500 nM, cell counts at 3, 6, 13 and 23 days in culture, n=4
Description: FIG. 6. Photomicrographs of primary embryonal rat cortical neuronal cells at 23 days subjected to environmental stress by exposure to growth factor deficient medium for 1 hour on day 3 of culture.
FIG. 7. Average number of primary embryonal rat cortical neuronal cells at 3, 6, 13, and 23 days in culture (n=4). • All cultures were exposed to growth factor deficient medium for 1 hour on day 3 followed by of culture in complete medium containing no supplement (control), drug vehicle (0.05% DMSO), compound 102 (500 nM), or compound 201 (500 nM).
Neurons were chronically or acutely treated with each compound and exposed to environmental stress (replacement of the culture medium with a saline PBS based solution for one hour followed by removal of the PBS medium and restoration of standard neuronal culture medium) and then observed for survival (FIG. 6).

[7] = tested on: NMDA type response to glutamate in primary rat cortical neurons; experiment: Calcium response of cultured neurons to acute glutamate exposure; format: cell-based; conditions: for calcium response to 200 uM glutamate versus DMSO control: 500 nM compound, 24 h prior to glutamate, single study; for average % increase in response to glutamate exposure: average of 4 separate experiments (FIG. 19)
From the text: To assess the effects of compound 102 and compound 201, independently, on neuronal function, the ability of the neurons in a culture dish to respond to exposure to glutamate was studied. In vitro, neurons respond to glutamate with the activation of several receptors associated with different transducing mechanisms. The assortment of glutamate sensitive receptors in a given neuronal population depends on maturation and differentiation. After seven days in culture, there is an assortment of glutamate receptors, including the AMPA/Kainate and NMDA receptors. AMPA/Kainate receptors are in general maximally expressed in the first few days in vitro followed by a gradual decline, while NMDA receptor expression increases over time, reaching a maximum after 7 days in vitro. AMPA/Kainate responses to exposure to glutamate as measured by calcium flux are characterized by fast desensitization (i.e. very little measurable calcium increase), while NMDA responses are characterized by an elevation of calcium concentration that persists as long as glutamate is applied. In the absence of test drug, there was variability in glutamate responsiveness dependent on NMDA receptor expression. A typical response of neurons in culture to glutamate characteristic of the NMDA receptors consists of a rapid increase and a high plateau phase of calcium (FIGS. 8-10). […] This modulation is compatible with a positive neurotrophic effect of compound 201.

[8] = tested on: primary rat cortical neurons; experiment: Neurite extension after Calcein staining; format: cell-based; conditions: 250 and 500 nM
Description: Neurite extension was evaluated after Calcein staining using commercially available software.

HDAC = HDAC inhibition; format: biochemical

Sequence of protein phosphatase 2A (P67775 whole entry): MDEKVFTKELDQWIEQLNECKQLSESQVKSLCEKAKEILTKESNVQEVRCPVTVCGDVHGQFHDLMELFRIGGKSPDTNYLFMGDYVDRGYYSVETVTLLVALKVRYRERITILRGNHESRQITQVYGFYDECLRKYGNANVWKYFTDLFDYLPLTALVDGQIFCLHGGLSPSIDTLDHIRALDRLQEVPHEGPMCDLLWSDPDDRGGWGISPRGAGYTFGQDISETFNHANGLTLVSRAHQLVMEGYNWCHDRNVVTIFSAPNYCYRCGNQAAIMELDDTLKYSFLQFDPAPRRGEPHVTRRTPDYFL

CN1CCN(C(=O)C2C(C(=O)O)[C@H]3CC[C@@H]2O3)CC1 (stereo partly shown) [Compound 100]
inhibition of protein phosphatase 2A (protein phosphatase 2A): inhibit protein phosphatase 2A | entry into the brain [1]: properties that enhance their entry into the brain | acetylation of histone 3 and histone 4 in brain [1]: increased acetylation of the histones | p-Akt (western blot) [2]: induction of p-Akt | total Akt relative to beta actin (western blot) [2]: increase in total Akt relative to beta actin | Akt phosphorylation in xenografts (Akt): increased Akt phosphorylation | p-Akt (western blot) [3]: induction of p-Akt | total Akt relative to beta actin (western blot) [3]: increase in total Akt relative to beta actin | p-Akt (western blot) [4]: induction of p-Akt | total Akt relative to beta actin (western blot) [4]: increase in total Akt relative to beta actin | p-Akt (western blot) [5]: induction of p-Akt | total Akt relative to beta actin (western blot) [5]: increase in total Akt relative to beta actin

CC(C)(C)OC(=O)N1CCN(C(=O)C2C(C(=O)O)[C@H]3CC[C@@H]2O3)CC1 (stereo partly shown) [Compound 102]
neuronal cell number / protection of cell integrity after stress [6]: little effect on cell number | inhibition of protein phosphatase 2A (protein phosphatase 2A): inhibit protein phosphatase 2A; also recorded: protein phosphatase 2A inhibitor | entry into the brain [1]: properties that enhance their entry into the brain | acetylation of histone 3 and histone 4 in brain [1]: increased acetylation of the histones | calcium response to 200 uM glutamate versus DMSO control [7]: statistically significant increase in the NMDA type response to glutamate; also recorded: significantly enhanced the response to glutamate | average % increase in response to glutamate exposure [7]: smaller but statistically significant effect; also recorded: less effective but still had a significant effect | Akt phosphorylation in xenografts (Akt): increased Akt phosphorylation | process length [8]: increased process length | total neurite outgrowth [8]: increased total neurite outgrowth

O=C(O)C1C(C(=O)N2CCN(Cc3ccccc3)CC2)[C@@H]2CC[C@H]1O2 (stereo partly shown) [Compound 103]
inhibition of protein phosphatase 2A (protein phosphatase 2A): inhibit protein phosphatase 2A

COc1ccc(CCN2CCC(NC(=O)C3C(C(=O)O)[C@H]4CC[C@@H]3O4)CC2)cc1 (stereo partly shown) [Compound 104]
inhibition of protein phosphatase 2A (protein phosphatase 2A): inhibit protein phosphatase 2A

CCN1CCN(C(=O)C2C(C(=O)O)[C@H]3CC[C@@H]2O3)CC1 (stereo partly shown) [Compound 105]
inhibition of protein phosphatase 2A (protein phosphatase 2A): inhibit protein phosphatase 2A

CN(C)CCNC(=O)C1C(C(=O)O)[C@H]2CC[C@@H]1O2 (stereo partly shown) [Compound 106]
inhibition of protein phosphatase 2A (protein phosphatase 2A): inhibit protein phosphatase 2A

COC(=O)C1C(C(=O)N2CCN(C)CC2)[C@@H]2CC[C@H]1O2 (stereo partly shown) [Compound 107]
inhibition of protein phosphatase 2A (protein phosphatase 2A): inhibit protein phosphatase 2A

CN1CCN(C(=O)C2C(C(=O)S)[C@H]3CC[C@@H]2O3)CC1 (stereo partly shown) [Compound 108]
inhibition of protein phosphatase 2A (protein phosphatase 2A): inhibit protein phosphatase 2A

O=C(O)C1C(C(=O)N2CCOCC2)[C@@H]2CC[C@H]1O2 (stereo partly shown) [Compound 111]
inhibition of protein phosphatase 2A (protein phosphatase 2A): inhibit protein phosphatase 2A

O=C(CCCCCNC(=O)c1ccccc1S)Nc1ccccc1 [Compound 201]
neuronal cell number / protection of cell integrity after stress [6]: marked neurotrophic effects as evidenced by maintenance for up to 21 days neuronal cell numbers; also recorded: statistically significant (p<=0.01) protection of cell integrity | calcium response to 200 uM glutamate versus DMSO control [7]: statistically significant increase in the NMDA type response to glutamate; also recorded: significantly enhanced the response to glutamate | average % increase in response to glutamate exposure [7]: significantly enhanced the response to glutamate | HDAC inhibition (HDAC): class I and II HDAC inhibitor | process length [8]: increased process length | total neurite outgrowth [8]: increased total neurite outgrowth

O=C(CCCCCNC(=O)c1ccccc1S)Nc1cccnc1 [Compound 205]
inhibition of protein phosphatase 2A (protein phosphatase 2A): no anti-PP2A activity | HDAC inhibition (HDAC): investigational histone deacetylase inhibitor | p-Akt (western blot) [5]: little effect; also recorded: no effect
